Laboratory results taken from paper PMC10812132 (Journal of biomolecular screening, 2010).
“And” between values parts separate entries of the source, which are not always exact repeats. Identical values can stand only once.

Columns and labels:
[1] = test system: Influenza A/Vietnam/1203/2004 (H5N1); format: cell-based, influenza A virus; settings: 72 h
[2] = test system: influenza A/Brisbane/59/2007 (H1N1) virus; format: cell-based

Structure (SMILES) | SI values (SI = IC50/EC50) of screening hits [1] | Reduction in M1 RNA levels vs no-drug infected MDCK cells [2]
CN(C)c1cccc(C(=O)Nc2ccc3nc4n(c(=O)c3c2)CCCCC4)c1 [compound 9551353] | > 3.5 | 
O=C(Nc1c(-c2ccccc2)nc2sccn12)c1ccccc1 [compound 786409] | > 94.6 | 
O=S(=O)(O)c1cc(O)c(N=Nc2ccc3cccc(S(=O)(=O)O)c3c2O)c2ccccc12 [SR 22859] | > 13.8 | 
NC(=O)c1ncn([C@@H]2O[C@H](CO)[C@@H](O)[C@H]2O)n1 [ribavirin] |  | 1.3 fold and 1.9 fold
